This passage reports IC50, melting point and tumor size results from US8946282B2, “Indolin-2-one derivatives as protein kinase inhibitors” (Annji Pharmaceutical Co., Ltd., priority 2012, dated 2015).

Series [1] deals with A549 human lung carcinoma cells. The series is described as follows: anti-proliferation, SRB colorimetric assay, A549. Particulars: concentration required for 50% growth inhibition, read-out: IC50 (μM, mean ± S.D.). In kind it is cell-based. On the technique in general: The SRB assay estimates cell density from bound dye.
For the next series, the target named is aurora B (Homo sapiens, UniProt Q96GD4). Kind of series: radioisotope-based P81 filter-binding assay, aurora B kinase. In kind it is biochemical. Particulars: averaged from two independent dose-response curves; read-out: Enzyme assay IC50 Aur B. The protocol:
(§1) Compounds of formula (I)-(IV) were evaluated for abilities in inhibiting protein kinases aurora B and FLT-3 activity using radioisotope-based P81 filter-binding assay (Table 1).

In the next series the target is T1, FLT-3 (Homo sapiens, UniProt P36888).
T1 sequence (P36888 27-993): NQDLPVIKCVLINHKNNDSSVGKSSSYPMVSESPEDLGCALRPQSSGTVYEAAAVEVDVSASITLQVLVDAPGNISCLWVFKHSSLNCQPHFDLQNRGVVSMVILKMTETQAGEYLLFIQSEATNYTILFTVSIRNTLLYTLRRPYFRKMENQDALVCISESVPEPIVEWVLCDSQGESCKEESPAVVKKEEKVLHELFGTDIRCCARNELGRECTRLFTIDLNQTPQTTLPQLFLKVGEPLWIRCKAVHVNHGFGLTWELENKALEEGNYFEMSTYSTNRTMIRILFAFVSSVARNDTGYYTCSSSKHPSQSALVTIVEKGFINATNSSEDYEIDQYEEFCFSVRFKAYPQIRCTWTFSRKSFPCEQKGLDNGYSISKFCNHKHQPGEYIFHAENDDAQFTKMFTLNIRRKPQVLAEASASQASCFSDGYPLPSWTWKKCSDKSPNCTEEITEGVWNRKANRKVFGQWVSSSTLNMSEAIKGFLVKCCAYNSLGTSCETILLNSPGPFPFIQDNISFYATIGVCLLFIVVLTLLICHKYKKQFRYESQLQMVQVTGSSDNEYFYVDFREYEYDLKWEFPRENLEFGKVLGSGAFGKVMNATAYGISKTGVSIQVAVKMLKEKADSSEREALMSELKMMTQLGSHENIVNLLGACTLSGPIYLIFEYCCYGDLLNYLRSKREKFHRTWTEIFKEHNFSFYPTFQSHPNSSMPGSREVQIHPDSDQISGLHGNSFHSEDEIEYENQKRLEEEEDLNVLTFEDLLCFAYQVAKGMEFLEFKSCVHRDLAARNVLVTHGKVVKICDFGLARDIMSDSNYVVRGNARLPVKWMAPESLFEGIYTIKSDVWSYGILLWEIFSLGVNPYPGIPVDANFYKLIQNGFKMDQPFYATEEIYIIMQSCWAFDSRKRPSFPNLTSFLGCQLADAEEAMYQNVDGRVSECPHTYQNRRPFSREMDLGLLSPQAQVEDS
Kind of series: radioisotope-based P81 filter-binding assay, FLT-3 kinase. In kind it is biochemical. Particulars: averaged from two independent dose-response curves; read-out: Enzyme assay IC50 FLT-3. The protocol:
as §1

Series [2] deals with HepG2 human hepatocellular carcinoma cells. The series is described as follows: anti-proliferation, SRB colorimetric assay, HepG2. The format is cell-based. Conditions: concentration required for 50% growth inhibition, read-out: IC50 (μM, mean ± S.D.). From the text:
HCT116 human colorectal carcinoma cells (Table 3), HepG2 human hepatocellular carcinoma cells (Table 4), and MV4-11 human acute myelomonocytic leukemia cells (Table 5).

Series [3] deals with HCT116 human colorectal carcinoma cells. The series is described as follows: anti-proliferation, SRB colorimetric assay, HCT116. The format is cell-based. Conditions: HCT-116, concentration required for 50% growth inhibition, read-out: IC50 (μM, mean ± S.D.). The protocol: (§2) HCT116 human colorectal carcinoma cells (Table 3), HepG2 human hepatocellular carcinoma cells (Table 4), and MV4-11 human acute myelomonocytic leukemia cells (Table 5). Cells were treated with the test compound and the concentration required for 50% growth inhibition (IC50) determined by sulfomodamine B (SRB) colorimetric assay.

The test system of series [4] is MV4-11 human acute myelomonocytic leukemia cells. Kind of series: anti-proliferation, SRB colorimetric assay, MV4-11. The format is cell-based. Conditions: concentration required for 50% growth inhibition. The protocol:
as §2

The next series has as its system Huh7 cancer cell line. The series is described as follows: in vivo efficacy, Huh7 xenografts in SCID mice. Conditions: established xenografts of Huh7 cancer cell line in female SCID mice.

Chain of aurora B (Q96GD4 whole entry): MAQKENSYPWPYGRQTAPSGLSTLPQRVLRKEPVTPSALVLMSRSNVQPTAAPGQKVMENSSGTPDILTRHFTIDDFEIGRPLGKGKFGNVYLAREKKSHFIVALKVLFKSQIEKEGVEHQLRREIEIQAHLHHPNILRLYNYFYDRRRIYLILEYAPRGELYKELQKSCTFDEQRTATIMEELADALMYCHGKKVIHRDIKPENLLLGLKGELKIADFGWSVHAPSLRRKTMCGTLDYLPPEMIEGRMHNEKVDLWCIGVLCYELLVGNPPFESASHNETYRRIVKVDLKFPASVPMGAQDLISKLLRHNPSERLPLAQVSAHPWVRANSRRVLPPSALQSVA

Take `Cc1[nH]c(/C=C2\C(=O)Nc3cc(NC(=O)NC(=O)c4ccc(F)cc4F)ccc32)c(C)c1CCC(=O)O` [D56, (Z)-3-(5-((6-(3-(2,4-difluorobenzoyl)ureido]-2-oxoindolin-3-ylidene)methyl)-2,4-dimethyl-1H-pyrrol-3-yl)propanoic acid]: the melting point is 280 to 285 °C (dec.). In addition, in series [1], the IC50 amounted to 0.1 ± 0.01 µM. In addition, the 50% inhibitory concentration (IC50) at aurora B was 0.0021 µM. The IC50 at FLT-3 amounted to 0.0027 µM. Further, the IC50 in series [2] amounted to 0.13 ± 0.06 µM. In series [3], the IC50 was 0.32 ± 0.07 µM.

As to `O=C1Nc2cc(NC(=O)c3c[nH]cc(-c4ccc(C(F)(F)F)cc4)c3=O)ccc2/C1=C/c1ccc[nH]1` [D133], the melting point is above 300 °C. Besides, the IC50 in series [1] turned out to be 0.45 ± 0.08 µM. Besides, the half-inhibitory concentration (IC50) on aurora B turned out to be 0.348 µM. Also, the IC50 on FLT-3 was 0.1 µM. Besides, in series [2], the IC50 was determined as 0.73 ± 0.03 µM. This molecule also registered a half-inhibitory concentration (IC50) in series [4] of 0.0059 µM. In series [3], the concentration for half-maximal inhibition (IC50) is 0.65 ± 0.04 µM.

Molecule `Cc1[nH]c(/C=C2\C(=O)Nc3cc(NC(=O)NC(=O)c4ccc(F)cc4)ccc32)c(C)c1CCC(=O)O` [D55, (Z)-3-(5-((6-(3-(4-fluorobenzoyl)ureido)-2-oxoindolin-3-ylidene)methyl)-2,4-dimethyl-1H-pyrrol-3-yl)propanoic acid] came in with a melting point above 300 °C. In addition, in series [1], the IC50 is 0.08 ± 0.01 µM. Besides, the IC50 on aurora B was determined as 0.0018 µM. For the same molecule, the IC50 at FLT-3 stood at 0.0457 µM. Moreover, the IC50 in series [2] is 0.21 ± 0.02 µM. Moreover, in series [3], the 50% inhibitory concentration (IC50) turned out to be 0.45 ± 0.02 µM.

`COc1ccc(-c2c[nH]cc(C(=O)Nc3ccc4c(c3)NC(=O)/C4=C\c3ccc[nH]3)c2=O)cc1` [D128, (Z)—N-(3-((1H-pyrrol-2-yl)methylene)-2-oxoindolin-6-yl)-5-(4-methoxyphenyl)-4-oxo-1,4-dihydropyridine-3-carboxamide] showed a melting point above 300 °C. Further, the IC50 in series [1] stood at 0.62 ± 0.06 µM. Further, the 50% inhibitory concentration (IC50) at aurora B turned out to be 0.0102 µM. The half-inhibitory concentration (IC50) at FLT-3 amounted to 0.0249 µM. Also, the half-maximal inhibitory concentration (IC50) in series [2] was determined as 0.81 ± 0.04 µM. Half-maximal inhibition in series [4] (IC50) was put at 0.025 µM. Further, the concentration for half-maximal inhibition (IC50) in series [3] is 0.63 ± 0.09 µM.

As for `O=C1Nc2cc(NC(=O)c3c[nH]cc(-c4ccc(F)cc4F)c3=O)ccc2/C1=C/c1ccc[nH]1` [D135, (Z)—N-(3-((1H-pyrrol-2-yl)methylene)-2-oxoindolin-6-yl)-4-oxo-5-(2,4-difluorophenyl)-1,4-dihydropyridine-3-carboxamide], the melting point was above 300 °C. Besides, the IC50 in series [1] came to 0.59 ± 0.09 µM. At aurora B, the concentration for half-maximal inhibition (IC50) stood at 0.0645 µM. The IC50 at FLT-3 came to 0.0501 µM. The IC50 in series [2] was found to be 0.56 ± 0.16 µM. The half-maximal inhibitory concentration (IC50) in series [4] was determined as 0.00425 µM. Further, in series [3], the half-inhibitory concentration (IC50) stood at 0.78 ± 0.1 µM.

Turning to `Cc1ccc(-c2c[nH]cc(C(=O)Nc3ccc4c(c3)NC(=O)/C4=C\c3ccc[nH]3)c2=O)cc1` [D131, (Z)—N-(3-((1H-pyrrol-2-yl)methylene)-2-oxoindolin-6-yl)-5-p-tolyl-4-oxo-1,4-dihydropyridine-3-carboxamide], the melting point was above 300 °C. In addition, the IC50 in series [1] was determined as 0.52 ± 0.03 µM. Also, the IC50 at aurora B came to 0.0632 µM. For the same molecule, the IC50 on FLT-3 was 0.0747 µM. The IC50 in series [2] was found to be 0.71 ± 0.07 µM. In series [4], it took 0.0184 µM to reach half-maximal inhibition (IC50). In addition, the IC50 in series [3] was found to be 0.56 ± 0.03 µM.

Turning to `O=C1Nc2cc(NC(=O)c3c[nH]cc(-c4cccc(Cl)c4)c3=O)ccc2/C1=C/c1ccc[nH]1` [D132, (Z)—N-(3-((1H-pyrrol-2-yl)methylene)-2-oxoindolin-6-yl)-5-(3-chlorophenyl)-4-oxo-1,4-dihydropyridine-3-carboxamide], the melting point was above 300 °C. Further, the IC50 in series [1] was found to be 0.5 ± 0.01 µM. For the same molecule, the IC50 at aurora B turned out to be 0.161 µM. In addition, the 50% inhibitory concentration (IC50) on FLT-3 came out at 0.148 µM. In series [2], the 50% inhibitory concentration (IC50) came out at 0.55 ± 0.03 µM. This molecule also displayed a concentration for half-maximal inhibition (IC50) in series [4] of 0.0091 µM. Further, the IC50 in series [3] was 0.63 ± 0.03 µM.

In the case of `O=C1Nc2cc(NC(=O)c3c[nH]cc(-c4ccc(Cl)cc4)c3=O)ccc2/C1=C/c1ccc[nH]1` [D130, (Z)—N-(3-((1H-pyrrol-2-yl)methylene)-2-oxoindolin-6-yl)-5-(4-chlorophenyl)-4-oxo-1,4-dihydropyridine-3-carboxamide], the melting point was above 300 °C. For the same molecule, the IC50 in series [1] was below 0.1 µM. Further, the half-inhibitory concentration (IC50) at aurora B came out at 0.0538 µM. In addition, at FLT-3, the IC50 worked out at 0.0076 µM. In series [2], the IC50 was determined as 0.67 ± 0.05 µM. For the same molecule, in series [4], half-maximal inhibition (IC50) was put at 0.00438 µM. Also, in series [3], the half-inhibitory concentration (IC50) worked out at 0.57 ± 0.04 µM.

Consider `Cc1[nH]c(/C=C2\C(=O)Nc3cc(NC(=O)NC(=O)c4ccccc4F)ccc32)c(C)c1CCC(=O)O` [D54, (Z)-3-(5-((6-(3-(2-fluorobenzoyl)ureido)-2-oxoindolin-3-ylidene)methyl)-2,4-dimethyl-1H-pyrrol-3-yl)propanoic acid], for which the melting point was 267 to 272 °C (dec.). The half-inhibitory concentration (IC50) in series [1] was determined as 0.11 ± 0.01 µM. Besides, the IC50 on aurora B was found to be 0.0015 µM. Moreover, on FLT-3, the IC50 was found to be 0.0124 µM. The IC50 in series [2] worked out at 0.47 ± 0.1 µM. Also, the half-inhibitory concentration (IC50) in series [3] stood at 0.97 ± 0.21 µM.

Turning to `O=C1Nc2cc(NC(=O)c3c[nH]cc(-c4ccccc4F)c3=O)ccc2/C1=C/c1ccc[nH]1` [D134, (Z)—N-(3-((1H-pyrrol-2-yl)methylene)-2-oxoindolin-6-yl)-4-oxo-5-(2-fluorophenyl)-1,4-dihydropyridine-3-carboxamide], the melting point is above 300 °C. Also, the IC50 in series [1] came out at 0.46 ± 0.06 µM. Besides, the IC50 on aurora B came to 0.0255 µM. The tumor size entry in the series on Huh7 cancer cell line is “suppressed the tumor size”. Moreover, the IC50 on FLT-3 is 0.1 µM. Besides, the IC50 in series [2] came to 0.6 ± 0.07 µM. The concentration for half-maximal inhibition (IC50) in series [4] amounted to 0.0132 µM. In addition, the IC50 in series [3] is 0.73 ± 0.09 µM.

By IC50 is commonly meant the concentration at which inhibition is half-maximal. Broadly, the melting point is the temperature, or range, at which the solid turns liquid.
